Measured values published in patent US20230129438A1, “IMMUNOMODULATING IMINE-OXAZOLINE AZALIDES” (Zoetis Services LLC, priority 2020, published 2023).
Marks after values point to notes of the source that are not given here.

Legend:
TNF-α = assay: Bovine whole blood assay, LPS-induced TNF-α; assay type: cell-based; conditions: LPS 1 μg/mL
Method: (§1) (protected from light) for 30 minutes.

S. aureus = assay: In-vitro MIC model, S. aureus; conditions: S. aureus ATCC 29213
E. coli = assay: In-vitro MIC model, E. coli
M. haemolytica = assay: In-vitro MIC model, M. haemolytica; assay type: cell-based
P. multocida = assay: In-vitro MIC model, P. multocida; assay type: cell-based
P. multocida 46572 = assay: In vivo mouse lung infection challenge model (murine efficacy model); conditions: 20 mg/kg subcutaneous, CD-1 mice, intranasal challenge, to Day 10; approximate (~%), harmonized relative to vehicle and M9
IL-1β = assay: Bovine whole blood assay, IL-1β; assay type: cell-based; conditions: drug concentration giving overstimulation of IL-1β over LPS (cellular toxicity signal)
Method: as §1

[1] = system: BRD pathogens, M. haemolytica and P. multocida; assay: In-vitro MIC model, BRD pathogen screening panel; assay type: cell-based; conditions: asterisk = at least one BRD bacterial isolate
[2] = M. haemolytica 46571, bovine efficacy challenge strain
[3] = P. multocida 46572, murine efficacy challenge strain

| Compound | IC50 (TNF-α) | MIC (S. aureus) | MIC (E. coli; E. coli ATCC 25922) | MIC (E. coli; E. coli W3110) | MIC (M. haemolytica; M. haemolytica 12726) | MIC (M. haemolytica; [2]) | MIC (M. haemolytica; M. haemolytica ATCC 33396) | MIC (P. multocida; [3]) | MIC (P. multocida; P. multocida ATCC 43137) | % Survival (P. multocida 46572) | IL-Iβ OS of LPS (IL-1β) | MIC flag on Ex# (Table A) [1] | MIC flag on Ex# (Table C) [1] |
| --- | --- | --- | --- | --- | --- | --- | --- | --- | --- | --- | --- | --- | --- |
| CCCNC[C@]1(O)[C@H](C)O[C@@H](O[C@H]2[C@H](C)[C@@H](O[C@@H]3O[C@H](C)C[C@H]4[C@H]3OC(=Nc3ccc(OC)cc3)N4C)[C@](C)(O)C[C@@H](C)CN[C@H](C)[C@@H](O)[C@](C)(O)[C@@H](CC)OC(=O)[C@@H]2C)C[C@@]1(C)OC (mixture of isomers) [Example A-9, (E/Z)-(2R,3S,4R,5R,8R,10R,11R,12S,13S,14R)-2-ethyl-3,4,10-trihydroxy-13-(((2R,4R,5S,6S)-5-hydroxy-4-methoxy-4,6-dimethyl-5-((propylamino)methyl)tetrahydro-2H-pyran-2-yl)oxy)-11-(((3aR,4S,6R,7aS)-2-((4-methoxyphenyl)imino)-1,6-dimethylhexahydro-2H-pyrano[4,3-d]oxazol-4-yl)oxy)-3,5,8,10,12,14-hexamethyl-1-oxa-6-azacyclopentadecan-15-one] | < 5 µM | >64 µg/mL | >64 µg/mL | >64 µg/mL | >64 µg/mL | >64 µg/mL | >64 µg/mL | >64 µg/mL | >64 µg/mL | 64% | 13 µM | – | – |
| CCCNC[C@]1(O)[C@H](C)O[C@@H](O[C@H]2[C@H](C)[C@@H](O[C@@H]3O[C@H](C)C[C@H]4[C@H]3OC(=Nc3ccc(OC)nc3)N4C)[C@](C)(O)C[C@@H](C)CN[C@H](C)[C@@H](O)[C@](C)(O)[C@@H](CC)OC(=O)[C@@H]2C)C[C@@]1(C)OC (mixture of isomers) [Example A-17, (E/Z)-(2R,3S,4R,5R,8R,10R,11R,12S,13S,14R)-2-ethyl-3,4,10-trihydroxy-13-(((2R,4R,5S,6S)-5-hydroxy-4-methoxy-4,6-dimethyl-5-((propylamino)methyl)tetrahydro-2H-pyran-2-yl)oxy)-11-(((3aR,4S,6R,7aS)-2-((6-methoxypyridin-3-yl)imino)-1,6-dimethylhexahydro-2H-pyrano[4,3-d]oxazol-4-yl)oxy)-3,5,8,10,12,14-hexamethyl-1-oxa-6-azacyclopentadecan-15-one] | – | >64 µg/mL | >64 µg/mL | >64 µg/mL | >64 µg/mL | >64 µg/mL | >64 µg/mL | >64 µg/mL | >64 µg/mL | 37% | – | – | – |
| CCCNC[C@]1(O)[C@H](C)O[C@@H](O[C@H]2[C@H](C)[C@@H](O[C@@H]3O[C@H](C)C[C@H]4[C@H]3OC(=NCC(F)(F)F)N4C)[C@](C)(O)C[C@@H](C)CN[C@H](C)[C@@H](O)[C@](C)(O)[C@@H](CC)OC(=O)[C@@H]2C)C[C@@]1(C)OC (mixture of isomers) [Example A-4, (E/Z)-(2R,3S,4R,5R,8R,10R,11R,12S,13S,14R)-11-(((3aR,4S,6R,7aS)-1,6-dimethyl-2-((2,2,2-trifluoroethyl)imino)hexahydro-2H-pyrano[4,3-d]oxazol-4-yl)oxy)-2-ethyl-3,4,10-trihydroxy-13-(((2R,4R,5S,6S)-5-hydroxy-4-methoxy-4,6-dimethyl-5-((propylamino)methyl)tetrahydro-2H-pyran-2-yl)oxy)-3,5,8,10,12,14-hexamethyl-1-oxa-6-azacyclopentadecan-15-one] | – | >64 µg/mL | >64 µg/mL | >64 µg/mL | >64 µg/mL | >64 µg/mL | >64 µg/mL | >64 µg/mL | >64 µg/mL | – | – | – | – |
| CC[C@H]1OC(=O)[C@H](C)[C@@H](O[C@H]2C[C@@](C)(OC)[C@](O)(CNC(C)C)[C@H](C)O2)[C@H](C)[C@@H](O[C@@H]2O[C@H](C)C[C@H]3[C@H]2OC(=Nc2ccc(OC)nc2)N3C)[C@](C)(O)C[C@@H](C)CN[C@H](C)[C@@H](O)[C@]1(C)O (mixture of isomers) [Example A-26, (E/Z)-(2R,3S,4R,5R,8R,10R,11R,12S,13S,14R)-2-ethyl-3,4,10-trihydroxy-13-(((2R,4R,5S,6S)-5-hydroxy-5-((isopropylamino)methyl)-4-methoxy-4,6-dimethyltetrahydro-2H-pyran-2-yl)oxy)-11-(((3aR,4S,6R,7aS)-2-((6-methoxypyridin-3-yl)imino)-1,6-dimethylhexahydro-2H-pyrano[4,3-d]oxazol-4-yl)oxy)-3,5,8,10,12,14-hexamethyl-1-oxa-6-azacyclopentadecan-15-one] | – | – | – | – | – | – | – | – | – | – | – | A-26* (an MIC ≤ 64 μg/mL for at least one BRD bacterial isolate) | – |
| CC[C@H]1OC(=O)[C@H](C)[C@@H](O[C@H]2C[C@@](C)(OC)[C@](O)(CN3CCOCC3)[C@H](C)O2)[C@H](C)[C@@H](O[C@@H]2O[C@H](C)C[C@H]3[C@H]2OC(=Nc2ccccc2)N3C)[C@](C)(O)C[C@@H](C)CN[C@H](C)[C@@H](O)[C@]1(C)O (mixture of isomers) [Example B-3, (E/Z)-(2R,3S,4R,5R,8R,10R,11R,12S,13S,14R)-11-(((3aR,4S,6R,7aS)-1,6-dimethyl-2-(phenylimino)hexahydro-2H-pyrano[4,3-d]oxazol-4-yl)oxy)-2-ethyl-3,4,10-trihydroxy-13-(((2R,4R,5S,6S)-5-hydroxy-4-methoxy-4,6-dimethyl-5-(morpholinomethyl)tetrahydro-2H-pyran-2-yl)oxy)-3,5,8,10,12,14-hexamethyl-1-oxa-6-azacyclopentadecan-15-one] | – | >64 µg/mL | >64 µg/mL | >64 µg/mL | >64 µg/mL | >64 µg/mL | >64 µg/mL | >64 µg/mL | >64 µg/mL | – | – | – | – |
| CC[C@H]1OC(=O)[C@H](C)[C@@H](O[C@H]2C[C@@](C)(OC)[C@@H](O)[C@H](C)O2)[C@H](C)[C@@H](O[C@@H]2O[C@H](C)C[C@H]3[C@H]2OC(=Nc2ccc(OC)cc2)N3C)[C@](C)(O)C[C@@H](C)CN[C@H](C)[C@@H](O)[C@]1(C)O (mixture of isomers) [Example C-3, (E/Z)-(2R,3S,4R,5R,8R,10R,11R,12S,13S,14R)-2-ethyl-3,4,10-trihydroxy-13-(((2R,4R,5S,6S)-5-hydroxy-4-methoxy-4,6-dimethyltetrahydro-2H-pyran-2-yl)oxy)-11-(((3aR,4S,6R,7aS)-2-((4-methoxyphenyl)imino)-1,6-dimethylhexahydro-2H-pyrano[4,3-d]oxazol-4-yl)oxy)-3,5,8,10,12,14-hexamethyl-1-oxa-6-azacyclopentadecan-15-one] | – | – | – | – | – | – | – | – | – | – | – | – | C-3* (MIC ≤ 64 μg/mL for at least one BRD bacterial isolate) |
| CCCNC[C@]1(O)[C@H](C)O[C@@H](O[C@H]2[C@H](C)[C@@H](O[C@@H]3O[C@H](C)C[C@H]4[C@H]3OC(=Nc3ccccc3)N4Cc3ccccc3)[C@](C)(O)C[C@@H](C)CN[C@H](C)[C@@H](O)[C@](C)(O)[C@@H](CC)OC(=O)[C@@H]2C)C[C@@]1(C)OC (mixture of isomers) [Example A-33, (E/Z)-(2R,3S,4R,5R,8R,10R,11R,12S,13S,14R)-11-(((3aR,4S,6R,7aS)-1-benzyl-6-methyl-2-(phenylimino)hexahydro-2H-pyrano[4,3-d]oxazol-4-yl)oxy)-2-ethyl-3,4,10-trihydroxy-13-(((2R,4R,5S,6S)-5-hydroxy-4-methoxy-4,6-dimethyl-5-((propylamino)methyl)tetrahydro-2H-pyran-2-yl)oxy)-3,5,8,10,12,14-hexamethyl-1-oxa-6-azacyclopentadecan-15-one] | 8 µM | – | – | – | – | – | – | – | – | – | 2 µM | A-33* (an MIC ≤ 64 μg/mL for at least one BRD bacterial isolate) | – |
| CC[C@H]1OC(=O)[C@H](C)[C@@H](O[C@H]2C[C@@](C)(OC)[C@@H](O)[C@H](C)O2)[C@H](C)[C@@H](O[C@@H]2O[C@H](C)C[C@H]3[C@H]2OC(=Nc2ccc(F)cc2)N3C)[C@](C)(O)C[C@@H](C)CN[C@H](C)[C@@H](O)[C@]1(C)O (mixture of isomers) [Example C-1, (E/Z)-(2R,3S,4R,5R,8R,10R,11R,12S,13S,14R)-2-ethyl-11-(((3aR,4S,6R,7aS)-2-((4-fluorophenyl)imino)-1,6-dimethylhexahydro-2H-pyrano[4,3-d]oxazol-4-yl)oxy)-3,4,10-trihydroxy-13-(((2R,4R,5S, 6S)-5-hydroxy-4-methoxy-4,6-dimethyltetrahydro-2H-pyran-2-yl)oxy)-3,5,8,10,12,14-hexamethyl-1-oxa-6-azacyclopentadecan-15-one] | – | – | – | – | – | – | – | – | – | – | – | – | C-1* (MIC ≤ 64 μg/mL for at least one BRD bacterial isolate) |
| (E/Z)-(2R,3S,4R,5R,8R,10R,11R,12S,13S,14R)-2-ethyl-3,4,10-trihydroxy-13-(((2R,4R,5S,6S)-5-hydroxy-4-methoxy-4,6-dimethyltetrahydro-2H-pyran-2-yl)oxy)-11-(((3aR,4S,6R,7aS)-2-((6-methoxypyridin-3-yl)imino)-1,6-dimethylhexahydro-2H-pyrano[4,3-d]oxazol-4-yl)oxy)-3,5,8,10,12,14-hexamethyl-1-oxa-6-azacyclopentadecan-15-one [Example C-2] | – | – | – | – | – | – | – | – | – | – | – | – | C-2* (MIC ≤ 64 μg/mL for at least one BRD bacterial isolate) |
